For 49 compounds, EC50 results are on record in US9469645B2, “Compounds and compositions for the treatment of parasitic diseases” (Novartis AG, priority 2009, dated 2016).

Assay [1] deals with W2 strain. The experiment in a line: parasite proliferation assay in infected red blood cells (SYBR Green I), W2 strain. The format is cell-based. The note with it: Erythrocyte. An excerpt:
Compounds of the invention can be assayed to measure their capacity to inhibit proliferation of parasitemia in infected red blood cells. The proliferation is quantified by the addition of SYBR Green I (INVITROGEN)® dye which has a high affinity for double stranded DNA.

Assay [2] has as its system 3D7 P. falciparum strain. The experiment in a line: parasite proliferation assay in infected red blood cells (SYBR Green I). The format is cell-based, Plasmodium falciparum. Conditions: Plasmodium falciparum, 3D7, Erythrocyte, 3D7 strain; read-out: EC50 3D7 strain. Summed up:
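P. falciparum 3D7 grown in O+ human erythrocytes to 3–8% parasitemia and exposed to compounds. Proliferation read as the increase in parasite DNA. Detection used SYBR Green I in saponin/triton-X/EDTA lysis buffer, with overnight lysis at room temperature.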

The EC50 is the concentration giving half of the maximal effect.

Consider `C[C@@H](C(=O)N1CCn2c(nc(-c3cccc(F)c3)c2Nc2ccc(Cl)c(F)c2)C1)c1ccccc1` [Compound 222], for which the EC50 in assay [1] was found to be 0.103 µM; in assay [2] it was 0.14 µM.

Consider `CCC(C)(O)CC(=O)N1CCn2c(nc(-c3ccc(F)cc3)c2Nc2ccc(C)cc2)C1` (centres unmarked) [Compound 143], for which the EC50 came out at 0.219 µM in assay [1] and 0.15 µM in assay [2].

For the compound `CN1CCn2c(nc(-c3ccc(F)cc3)c2Nc2ccc(F)cc2)C1(C)C` [Compound 606], the half-maximal effective concentration (EC50) in assay [1] (Plasmodium falciparum) came out at 0.028 µM; in assay [2], 0.02 µM.

`NCC(=O)N1CCn2c(nc(-c3ccc(F)cc3O)c2Nc2ccc(F)cc2)C1` [Compound 51]: the values for the EC50 in assay [1] and in assay [2] were 0.062 µM and 0.07 µM, respectively.

For the compound `Cc1ccc(Nc2c(-c3ccc(F)cc3F)nc3n2CCNC3)cc1` [Compound 280], the EC50 came to 4.65 µM in assay [1] and 4.71 µM in assay [2].

With `CCCNC(=O)C[C@H](N)C(=O)N1CCn2c(nc(-c3cccc(F)c3)c2Nc2ccc(F)cc2)C1` [Compound 256], the concentration for a half-maximal effect (EC50) in assay [1] is 1.48 µM; in assay [2], 1.16 µM.

With `Cc1ccc(Nc2c(-c3ccc(F)cc3)nc3n2CCN(C(=O)C(O)c2ccc(C(F)(F)F)cc2)C3)cc1` (centres unmarked) [Compound 127], the results for the concentration giving a half-maximal response (EC50) in assay [1] and in assay [2] were 0.051 µM and 0.06 µM, respectively.

As for `Cc1ccc(Nc2c(-c3ccc(F)cc3)nc3n2CC(=O)NC3)cc1` [Compound 300], the 50% effective concentration (EC50) in assay [1] stood at 1.17 µM; in assay [2] it was 1.11 µM.

Take `Cc1ccc(Nc2c(-c3ccc(F)cc3)nc3n2CCN(C(=O)[C@@H](C)c2ccccc2)C3)cc1` [Compound 175]: the concentration giving a half-maximal response (EC50) was found to be 0.105 µM in assay [1] and 0.08 µM in assay [2].

In the case of `CCCCC(=O)Nc1ccc(C[C@H](NC(=O)OC(C)(C)C)C(=O)N2CCn3c(nc(-c4cccc(F)c4)c3Nc3ccc(Cl)c(F)c3)C2)cc1` [Compound 252], the EC50 in assay [1] is 0.631 µM; in assay [2], 3.03 µM.

Turning to `CC1(C)c2nc(-c3ccc(F)cc3)c(Nc3ccc(-c4ccccc4)cc3)n2CCN1C(=O)CN` [Compound 647], the values for the EC50 in assay [1] (Plasmodium falciparum) and in assay [2] were 0.25 µM and 0.279 µM, respectively.

For the compound `CC(C)(C)CC(C)(C)Nc1c(-c2ccccc2-c2ccco2)nc2ccccn12` [Compound 747], the concentration for a half-maximal effect (EC50) in assay [1] (Plasmodium falciparum) was found to be 4.48 µM; in assay [2], 2.23 µM.

On to `CC1(C)NCCn2c1nc(-c1ccc(F)cc1)c2C(=O)Nc1ccc(F)cc1` [Compound 707, N,2-bis(4-fluorophenyl)-8,8-dimethyl-5,6,7,8-tetrahydroimidazo[1,2-a]pyrazine-3-carboxamide], for which the EC50 was > 10 µM in assay [1] (Plasmodium falciparum) and 6.54 µM in assay [2].

Consider `Cc1ccc(Nc2c(-c3ccc(F)cc3)nc3n2CCN(C(=O)C2(O)CC2)C3)cc1` [Compound 99], for which the EC50 stood at 0.658 µM in assay [1] and 0.81 µM in assay [2].

With `COc1ccc(CN2Cc3nc(-c4ccc(F)cc4)c(Nc4ccc(Cl)c(F)c4)n3C(C)(C)C2=O)cc1` [Compound 613], the concentration giving a half-maximal response (EC50) was found to be 5.71 µM in assay [1] (Plasmodium falciparum) and 6.27 µM in assay [2].

Consider `Cc1ccc(Nc2c(-c3ccc(F)cc3)nc3n2CCN(C(=O)[C@@H](O)c2ccccc2)C3)cc1` [Compound 138], for which the values for the EC50 in assay [1] and in assay [2] were 0.015 µM and 0.01 µM, respectively.

Take `Cn1cc(CC(=O)N2CCn3c(nc(-c4ccc(F)cc4)c3Nc3ccc(Cl)c(F)c3)C2)c2ccccc21` [Compound 357]: the EC50 in assay [1] stood at 4.71 µM; in assay [2] it was 7.49 µM.

Turning to `Cc1ccc(NCC(=O)N2CCn3c(nc(-c4ccc(F)cc4)c3Nc3ccc(C)cc3)C2)cc1` [Compound 362], the half-maximal effective concentration (EC50) was 0.203 µM in assay [1] and 0.81 µM in assay [2].

As to `O=C(C1COCCN1)N1CCn2c(nc(-c3ccc(F)cc3)c2Nc2ccc(Cl)c(F)c2)C1` (centres unmarked) [Compound 323], the half-maximal effective concentration (EC50) in assay [1] worked out at 1.33 µM; in assay [2], 1.73 µM.

With `Cc1ccc(Nc2c(-c3ccc(F)cc3)nc3n2CCN(C(=O)C(Oc2ccccc2C)C(C)C)C3)cc1` (centres unmarked) [Compound 208], the values for the half-maximal effective concentration (EC50) in assay [1] and in assay [2] were 1.06 µM and 5.87 µM, respectively.

For `CC(C)(N)C(=O)N1CCn2c(nc(-c3ccc(F)cc3)c2Nc2ccc(F)c(C(F)(F)F)c2)C1` [Compound 634], the EC50 in assay [1] (Plasmodium falciparum) stood at 0.447 µM; in assay [2] it was 0.467 µM.

Take `Cc1ccc(Nc2c(-c3ccc(F)cc3)nc3n2CCN(C(=O)C(O)c2ccc(F)cc2)C3)cc1` (centres unmarked) [Compound 107]: the concentration for a half-maximal effect (EC50) in assay [1] and in assay [2] was 0.01 µM throughout.

Turning to `Cc1ccc(Nc2c(-c3ccc(F)cc3)nc3n2CCN(C(=O)C2CCOC2)C3)cc1` (centres unmarked) [Compound 212], the EC50 in assay [1] stood at 1.98 µM; in assay [2], 1.95 µM.

`Cc1ccc(Nc2c(-c3ccc(F)cc3)nc3n2CC(=O)N(CCN(C)C)C3(C)C)cc1Cl` [Compound 682]: the EC50 in assay [1] (Plasmodium falciparum) is 0.111 µM; in assay [2], 0.124 µM.

With `Cc1ccc(Nc2c(-c3ccc(F)cc3)nc3n2CCN(C(=O)C(c2ccccc2)C(C)C)C3)cc1` (centres unmarked) [Compound 231], the figures for the EC50 in assay [1] and in assay [2] were 0.07 µM and 0.09 µM, respectively.

In the case of `N[C@@H](Cc1ccccc1)C(=O)N1CCn2c(nc(-c3ccc(F)cc3)c2Nc2ccc(F)cc2)C1` [Compound 19], the EC50 in assay [1] is 0.059 µM; in assay [2], 0.07 µM.

As for `CC1(C)c2nc(-c3ccc(F)cc3)c(Sc3cccc(F)c3)n2CCN1C(=O)CN` [Compound 714], the 50% effective concentration (EC50) in assay [1] (Plasmodium falciparum) turned out to be 0.004 µM; in assay [2], 0.007 µM.

With `Cc1cc(Nc2c(-c3cccc(F)c3)nc3n2CC(=O)N(CC2CNC2)C3(C)C)ccc1F` [Compound 686], the EC50 was 0.524 µM in assay [1] (Plasmodium falciparum) and 0.628 µM in assay [2].

On to `Cc1ccc(Nc2c(-c3cccc(Cl)c3)nc3n2CCN(C(=O)CN)C3)cc1` [Compound 383], for which the EC50 was found to be 0.032 µM in assay [1] and 0.05 µM in assay [2].

Regarding `CCCNC(=O)C[C@H](NC(=O)OC(C)(C)C)C(=O)N1CCn2c(nc(-c3cccc(F)c3)c2Nc2ccc(F)cc2)C1` [Compound 248], the EC50 in assay [1] was determined as 4.56 µM; in assay [2], 7.01 µM.

Consider `Cc1ccc(Nc2c(-c3ccc(F)cc3)nc3n2CCN(C(=O)C(O)c2ccc(Br)cc2F)C3)cc1` (centres unmarked) [Compound 132], for which the figures for the EC50 in assay [1] and in assay [2] were 0.082 µM and 0.1 µM, respectively.

On to `CC(C)(N)C(=O)N1CCn2c(nc(-c3ccc(F)cc3)c2Nc2cccnc2)C1` [Compound 16], for which the EC50 was 3.33 µM in assay [1] and 14.1 µM in assay [2].

Turning to `NCCCC(=O)N1CCn2c(nc(-c3ccc(F)cc3)c2Nc2ccc(F)cc2)C1` [Compound 18], the EC50 turned out to be 8.14 µM in assay [1] and 12.3 µM in assay [2].

On to `CC1(C)c2nc(-c3ccc(F)cc3)c(Nc3ccc(C#N)c(C(F)(F)F)c3)n2CCN1C(=O)CN` [Compound 655], for which the results for the EC50 in assay [1] (Plasmodium falciparum) and in assay [2] were 0.02 µM and 0.017 µM, respectively.

As to `COc1ccc(Cc2c(-c3ccc(F)cc3)nc3n2CCN(C(=O)CN)C3(C)C)cc1` [Compound 695, 2-amino-1-(2-(4-fluorophenyl)-3-(4-methoxybenzyl)-8,8-dimethyl-5,6-dihydroimidazol[1,2-a]pyrazin-7(8H)-yl)ethanone], the EC50 amounted to 0.019 µM in assay [1] (Plasmodium falciparum) and 0.017 µM in assay [2].

Turning to `Cc1ccc(Nc2c(-c3ccc(F)cc3)nc3n2CCN(C(=O)[C@H](N)[C@H](C)O)C3)cc1` [Compound 285], the 50% effective concentration (EC50) came to 0.177 µM in assay [1] and 0.18 µM in assay [2].

On to `CCCNC(=O)C[C@H](N)C(=O)N1CCn2c(nc(-c3cccc(F)c3)c2Nc2ccc(Cl)c(F)c2)C1` [Compound 255], for which the 50% effective concentration (EC50) worked out at 0.653 µM in assay [1] and 0.61 µM in assay [2].

Take `Cc1cc(Nc2c(-c3ccc(F)cc3)nc3n2C(C)(C)C(=O)N(C)C3)ccc1F` [Compound 617]: the concentration giving a half-maximal response (EC50) worked out at 6.88 µM in assay [1] (Plasmodium falciparum) and 6.33 µM in assay [2].

In the case of `Cc1ccc(Nc2c(-c3cccc(Cl)c3)nc3n2CCNC3)cc1` [Compound 279], the EC50 in assay [1] turned out to be 3.83 µM; in assay [2] it was 3.52 µM.

Regarding `CCO[C@@H](Cc1ccc(O)cc1)C(=O)N1CCn2c(nc(-c3ccc(F)cc3)c2Nc2ccc(C)cc2)C1` [Compound 210], the half-maximal effective concentration (EC50) in assay [1] was 0.026 µM; in assay [2] it was 0.04 µM.

Turning to `Cc1ccc(Nc2c(-c3ccc(F)cc3)nc3n2CCN(C(=O)C(N)C(F)(F)F)C3)cc1` (centres unmarked) [Compound 144], the figures for the EC50 in assay [1] and in assay [2] were 0.073 µM and 0.05 µM, respectively.

Take `Fc1cccc(-c2nc3cnccn3c2Nc2ccc(Cl)c(F)c2)c1` [Compound 207]: the EC50 in assay [1] was 2.42 µM; in assay [2] it was 9.31 µM.

Turning to `CC(C)(N)C(=O)N1CCn2c(nc(-c3ccc(F)cc3)c2Nc2ccc(F)cc2)C1` [Compound 3], the EC50 in assay [1] turned out to be 0.025 µM; in assay [2], 0.02 µM.

Regarding `CC1(C)c2nc(-c3ccc(F)cc3)c(Nc3ccc(F)cc3)n2CCN1C(=O)CNC(=O)CCNC(=O)CCc1ccc2oc3ccccc3c2c1` [Compound 729], the half-maximal effective concentration (EC50) in assay [1] (Plasmodium falciparum) is 6.29 µM; in assay [2], > 10 µM.

As for `CCC(=O)Nc1ccc(C[C@H](N)C(=O)N2CCn3c(nc(-c4cccc(F)c4)c3Nc3ccc(Cl)c(F)c3)C2)cc1` [Compound 259], the EC50 was 3.02 µM in assay [1] and 5.32 µM in assay [2].

Consider `Cc1ccc(Nc2c(-c3ccc(F)cc3)nc3n2CCN(C(=O)[C@@H](N)CCCCNC(=O)CCOCCOCCOCCOCCNC(=O)CCCCC2SCC4NC(=O)NC42)C3)cc1` (some centres unmarked) [Compound 159], for which the EC50 in assay [1] was 2.91 µM; in assay [2], 5.7 µM.

For the compound `Cc1c(Cc2ccccc2)nc2n1[C@H](CCc1ccccc1)C(=O)N[C@@H]2Cc1ccccc1` [Compound 289, (5R,8R)-2,8-dibenzyl-3-methyl-5-phenethyl-7,8-dihydroimidazo[1,2-a]pyrazin-6(5H)-one], the results for the EC50 in assay [1] and in assay [2] were 0.747 µM and 3.88 µM, respectively.

For the compound `Cc1cc(Nc2c(-c3ccc(F)cc3)nc3n2CC(=O)N(CCN(C)C)C3(C)C)ccc1Cl` [Compound 684], the results for the EC50 in assay [1] (Plasmodium falciparum) and in assay [2] were 0.017 µM and 0.03 µM, respectively.

Turning to `Cc1ccc(Nc2c(-c3ccc(F)cc3)nc3n2CCN(C(=O)CNC2CC2)C3)cc1` [Compound 153], the EC50 was determined as 0.032 µM in assay [1] and 0.06 µM in assay [2].
